Experimental data as given in patent EP4400100A1, “ANT[…] USE IN THE TREATMENT OF CANCER” (Instituto de Investigación Biomédica de Salamanca De la …, priority 2023, dated 2024).

Assays:
Type in all cases: cell-based
[1] = tested on: androgen-treated cancer cell lines (AR+ and AR-); assay: Cell growth after 7 days of treatment with dihydrotestosterone, enzalutamide and their combination; settings: for cell growth on androgen stimulation: DHT 10 nM
Description: (§1) • Figure 1. […] Study of cell proliferation by MTT assay in AR+ MCF7, BT474, BT549 and HS 578T lines and in AR-HCC1937, HCC1569 and MDA-MB-231 lines at 24, 48 and 72 hours after enzalutamide treatment. Error bars are not shown when smaller than the symbol size. IC50 (best fit and 95% confidence interval) shown below. • Figure 2. […] Cell viability study by Annexin V/propidium iodide labelling in AR+ MCF7, BT474, BT549 and HS 578T lines and in AR- HCC1937, HCC1569 and MDA-MB-231 lines after 72 hours of enzalutamide treatment. Error bars represent SD. Significance between C- and different conditions shown without brackets (^∗p < 0.05, ^∗∗p < 0.01, ★p<0.001). • Figure 3. A) Effect of […] dihydrotestosterone, 10 µM enzalutamide and their combination on the indicated cell lines after 7 days of treatment. Data are the average of three independent experiments. Error bars represent SD. Statistically significant differences between C- and different conditions are shown without brackets (*p < 0.05, **p < 0.01, *p<0.001). […] Study of cell proliferation by MTT assay in the AR+ LN18 line and in the AR- SKOV-3 and CAL33 lines at 24, 48 and 72 hours after treatment with enzalutamide.
To assess whether the effect of enzalutamide is androgen-independent, we tested the effect of enzalutamide on androgen-treated cancer cell lines. We studied the effects of dihydrotestosterone (DHT) (10 nM), enzalutamide (10 µM) and their combination on the different lines (Figure 3A).

[2] = tested on: AR+ MCF7, BT474, BT549 and HS 578T lines and AR- HCC1937, HCC1569 and MDA-MB-231 lines; assay: Cell proliferation by MTT assay in breast cancer cell lines
Description: as §1

[3] = tested on: AR+ LN18 line and AR- SKOV-3 and CAL33 lines; assay: Cell proliferation by MTT assay in ovarian, glioblastoma and head and neck cancer cell lines; settings: SKOV-3 (AR-), 24, 48 and 72 hours, preliminary results
Description: as §1

[4] = tested on: AR+ MCF7, BT474, BT549 and HS 578T lines and AR- HCC1937, HCC1569 and MDA-MB-231 lines; assay: Apoptosis / cell viability by Annexin V/propidium iodide labelling and flow cytometry in breast cancer cell lines; settings: varying concentrations, 72 hours, independent of receptor status
Description: as §1

Structure (SMILES)	cell growth on androgen stimulation ([1]; BT474 (AR+) and AR- lines)	cell growth on androgen stimulation ([1]; HS 578 T, followed by BT549 and MCF7 (AR+))	cell growth inhibition, ranking of cell lines ([2]; MDA-MB-231 (AR-) line, 24, 48 or 72 hours, followed by HCC1569 (AR-), BT474 (AR+) and BT549 (AR+))	cell proliferation ([2]; all breast cancer cell lines tested (AR+ and AR-), 24, 48 and 72 hours of treatment, higher efficacy at 72 hours)	proliferation [3]	apoptosis [4]	inhibition of proliferation ([1]; enzalutamide 10 µM alone)	inhibition of cell proliferation ([1]; enzalutamide 10 µM combined with DHT 10 nM, AR+ and AR- cells)
C[C@]12CCC(=O)C[C@@H]1CC[C@@H]1[C@@H]2CC[C@]2(C)[C@@H](O)CC[C@@H]12 [dihydrotestosterone]	No significant differences	highest increase in cell growth						
CNC(=O)c1ccc(N2C(=S)N(c3ccc(C#N)c(C(F)(F)F)c3)C(=O)C2(C)C)cc1F [enzalutamide]			the most affected	inhibited cell proliferation in a dose- and time-dependent manner in all cell lines tested	induces an inhibitory effect on proliferation regardless of the androgen receptor status of the tumours	induced apoptosis in a dose-dependent manner	induced a higher inhibition of proliferation than that observed at 72 hours	the inhibition of cell proliferation was less than that of enzalutamide alone
